We go through 42 compounds from patent publication US20260234144A1 (TAY THERAPEUTICS LIMITED, priority 2023, published 2026).

Molecules are shown by their SMILES.

The assay concerns R223X stop codon in the mutated luciferase gene, ADXC8 luciferase reporter cell line. As to the kind of experiment: cells. As to conditions: ADXC8 cells, 24 hours; for Emax / EC (100% of 200 uM G418 response): 24 h; for Emax: read-out: Fold Over Control, maximum fold response relative to 200 μM G418; for EC (100% of 200 uM G418 response): read-out: pC100%, negative logarithm of the concentration giving the same response as 200 μM G418. It counts as cell-based. On the procedure:
The read-through activity of compounds was assessed using the ADXC8 luciferase reporter cell line (generated as described in McElroy et al. PLoS Biology (2013), 11, e1001593). […] The amount of luciferase is measured by adding a lysis buffer containing luciferin substrate and detecting luminescence using the following protocol:
ADXC8 cells in assay media (DMEM+10% FBS) were seeded into 96-well tissue culture treated white plates (Greiner) to a density of 13,000 cells per well and incubated for 24 hours at 37° C. in an atmosphere of 5% CO2. […] Plates were incubated for a further 24 hours at 37° C. in an atmosphere of 5% CO2. Cells treated with 200 μM G418 (with 1% DMSO) were used as a positive control.
Cell viability and firefly luciferase activity were measured in the same assay wells. CellTiter-Fluor™ reagent was prepared as per manufacturer's instructions (Promega E7120) and 20 μl of 5× CellTiter-Fluor™ reagent was added to all wells, briefly mixed by orbital shaking (300-500 rpm for −30 seconds) and the plates incubated for 30-45 minutes at 37° C. in an atmosphere of 5% C02. Cell viability was measured by monitoring fluorescence on a CLARIOstar® plate reader (BMG Labtech). Cells containing 1% DMSO were used as a positive control and cells with 400 μM Doxorubicin were used as negative control to define 100 and 0% respectively. ONE-Glo™ luciferase assay buffer (Promega E7120) was prepared according to manufacturer's instructions and 100 μl of luciferase reagent was added to each well and the plate incubated at RT for 3 mins before measuring the luminescence on the CLARIOstar® plate reader (BMG Labtech). Cells treated with 200 μM G418 (with 1% DMSO) were used as a positive control and arbitrarily assigned a value of 100%. Cells treated with 1% DMSO were used as the negative control to define 0% response.
Concentration effect curves were analysed using non-linear regression using the CDD Vault from Collaborative Drug Discovery (Burlingame, CA). […] The bottom and top of the curves were constrained to 0 and the maximum measured response respectively. From the fitted curves, the software derived C100% values (the concentration giving the same response as 200 μM G418) for each compound. The negative logarithm of C100% is reported as pC100% (Table 1). In addition to pC100% values, the maximum fold response relative to 200 μM G418 (Fold over Control) was also captured (Table 1). A pC100% categorisation of ‘-’ in Table 1 represents examples in which a pC100% response was not reached when assayed at a concentration of 100 μM. A pC100% categorisation of ‘*’ in Table 1 represents examples in which a pC100% response was not reached when assayed at a concentration of 30 μM.

Take `Cc1cc(C)c2c(N)nc(NC3CCN(Cc4nccs4)CC3)nc2n1` [Example 463]: the Emax was in the range of 100 to 3000% and the EC (100% of 200 uM G418 response) fell in the range of 1 to 10 µM.

On to `CNc1nc(N[C@@H]2CCN(C)C2)nc2nc(OC)c(CCO)c(C)c12` [Example 513, (R)-2-(7-methoxy-5-methyl-4-(methylamino)-2-((1-methylpyrrolidin-3-yl)amino)pyrido[2,3-d]pyrimidin-6-yl)ethan-1-ol], for which the Emax fell in the range of 0 to 100% and the EC (100% of 200 uM G418 response) was above 31.6 µM.

For `Cc1c2c(nc3nc(NC4CCN(Cc5ccc(B(O)O)cc5)CC4)nc(N)c13)CCC2` [Example 668], the Emax was in the range of 100 to 3000% and the EC (100% of 200 uM G418 response) fell in the range of 1 to 10 µM.

As to `Cc1cc(C)c2c(N)nc(N[C@@H]3CCN(CC(F)(F)F)C3)nc2n1` [Example 311], the Emax was 0 to 100% and the EC (100% of 200 uM G418 response) was above 31.6 µM.

Turning to `CNc1nc(N[C@H]2CCCN(C)CC2)nc2nc(C)cc(C)c12` [Example 386], the Emax was in the range of 100 to 3000% and the EC (100% of 200 uM G418 response) was 1 to 10 µM.

With `Cc1cc(C)c2c(N)nc(NC3CCN(Cc4ccccc4)CC3)nc2n1` [Example 158], the Emax is 100 to 3000% and the EC (100% of 200 uM G418 response) was in the range of 0.1 to 1 µM.

For `CNCc1cccc(-c2ccc3c(N)nc(NC4CCN(C)CC4)nc3n2)c1` [Example 109], the Emax lay in the range of 100 to 3000% and the EC (100% of 200 uM G418 response) fell in the range of 10 to 100 µM.

Turning to `COc1cc(C)nc2nc(N[C@@H]3CCN(C)C3)nc(N)c12` [Example 525, (R)-5-methoxy-7-methyl-N^2-(1-methylpyrrolidin-3-yl)pyrido[2,3-d]pyrimidine-2,4-diamine], the Emax is 100 to 3000% and the EC (100% of 200 uM G418 response) fell in the range of 10 to 100 µM.

Turning to `Cc1cc(C)c2c(N)nc(NC3CCN(Cc4cnn(C)c4)CC3)nc2n1` [Example 568], the Emax lay within 100 to 3000% and the EC (100% of 200 uM G418 response) fell in the range of 1 to 10 µM.

Consider `Cc1cc(C)c2c(N)nc(NC3(C)CNC3)nc2n1` [Example 222], for which the Emax lay within 0 to 100% and the EC (100% of 200 uM G418 response) was above 31.6 µM.

In the case of `CN1CCC(Nc2nc(N)c3ccc(-c4ccc(F)cc4)nc3n2)CC1` [Example 57], the Emax was in the range of 100 to 3000% and the EC (100% of 200 uM G418 response) was 1 to 10 µM.

Regarding `COc1ccc(CNc2ccnc3nc(NC4CCN(C)CC4)nc(N)c23)cc1` [Example 298], the Emax is 0 to 100% and the EC (100% of 200 uM G418 response) is above 100 µM.

Regarding `CNc1nc(N[C@@H]2CN[C@@H](C)C2)nc2nc(C)cc(C)c12` [Example 374], the Emax was in the range of 100 to 3000% and the EC (100% of 200 uM G418 response) was in the range of 10 to 100 µM.

`CNc1nc(NC2CC3CCC2N3C)nc2nc(C)cc(C)c12` (centres unmarked) [Example 592]: the Emax was in the range of 100 to 3000% and the EC (100% of 200 uM G418 response) fell in the range of 1 to 10 µM.

Consider `CCNc1nc(N[C@H]2CN(C)C[C@@H]2O)nc2nc(C)cc(C)c12` [Example 391], for which the Emax lay in the range of 100 to 3000% and the EC (100% of 200 uM G418 response) fell in the range of 0.1 to 1 µM.

As to `CNc1nc(N[C@H]2CNC[C@H]2O)nc2nc(C)c3c(c12)CCC3` [Example 345], the Emax lay in the range of 100 to 3000% and the EC (100% of 200 uM G418 response) was in the range of 10 to 100 µM.

On to `CNc1nc(N[C@@H]2CCNC2)nc2nc3c(c(C)c12)CCC3` [Example 231, (R)—N^4,5-dimethyl-N^2-(pyrrolidin-3-yl)-7,8-dihydro-6H-cyclopenta[5,6]pyrido[2,3-d]pyrimidine-2,4-diamine], for which the Emax fell in the range of 100 to 3000% and the EC (100% of 200 uM G418 response) was 0.1 to 1 µM.

Regarding `CNc1nc(NC2C3CNC2C3)nc2nc(C)cc(C)c12` (single isomer, unassigned) [Example 447], for the setting “maximum fold response relative to 200 μM G418”, the “Fold Over Control” value is listed as “## (Fold over Ctrl > 1 ≤ 30)”. Also, the pC100% result (negative logarithm of the concentration giving the same response as 200 μM G418) is reported as “++ (pC100% > 5.0 ≤ 6.0)”.

For `Cc1cc(C)c2c(N)nc(NC3CCN(CC4CCC4)CC3)nc2n1` [Example 454], the Emax was in the range of 100 to 3000% and the EC (100% of 200 uM G418 response) was 1 to 10 µM.

Take `CN(C)Cc1ccccc1-c1ccc2c(N)nc(NC3CCN(C)CC3)nc2n1` [Example 59]: the Emax lay within 0 to 100% and the EC (100% of 200 uM G418 response) is above 100 µM.

As for `CNc1nc(N[C@H]2CN(C(C)C)C[C@@H]2O)nc2nc(C)cc(C)c12` [Example 625], the Emax was 100 to 3000% and the EC (100% of 200 uM G418 response) lay in the range of 1 to 10 µM.

Regarding `Cc1cc(C)c2c(N)nc(NC3CCN(Cc4ccc(C(=O)N(C)C)cc4)CC3)nc2n1` [Example 495], the Emax is 0 to 100% and the EC (100% of 200 uM G418 response) is above 31.6 µM.

`Cc1cc(C)c2c(N)nc(N[C@@H]3CCNC[C@H]3F)nc2n1` [Example 585]: the Emax was 100 to 3000% and the EC (100% of 200 uM G418 response) was in the range of 1 to 10 µM.

Turning to `CC(=O)c1ccnc2nc(NC3CCN(C)CC3)nc(N)c12` [Example 309], the Emax is 0 to 100% and the EC (100% of 200 uM G418 response) is above 100 µM.

As to `COC(=O)c1ccc2c(N)nc(NC3CCN(C)CC3)nc2n1` [Example 235, methyl 4-amino-2-((1-methylpiperidin-4-yl)amino)pyrido[2,3-d]pyrimidine-7-carboxylate], the Emax fell in the range of 0 to 100% and the EC (100% of 200 uM G418 response) was above 100 µM.

In the case of `CNc1nc(N[C@H]2CCCNCC2)nc2nc(C)cc(C)c12` [Example 387], the Emax is 100 to 3000% and the EC (100% of 200 uM G418 response) fell in the range of 1 to 10 µM.

In the case of `CN(C)Cc1ccc(-c2ccc3c(N)nc(NC4CCN(C)CC4)nc3n2)cc1` [Example 105], the Emax fell in the range of 100 to 3000% and the EC (100% of 200 uM G418 response) was in the range of 10 to 100 µM.

`COc1cccc(CN2CCC(Nc3nc(N)c4c(C)cc(C)nc4n3)CC2)c1` [Example 494]: the Emax was in the range of 100 to 3000% and the EC (100% of 200 uM G418 response) was 1 to 10 µM.

Consider `CNc1nc(N[C@H]2CNC[C@H]2O)nc2nc(C)cc(C)c12` [Example 326], for which the Emax lay within 0 to 100% and the EC (100% of 200 uM G418 response) was above 31.6 µM.

Regarding `CNC(=O)CCNc1nc(NC2CCN(C)CC2)nc2nc(C)cc(C)c12` [Example 353], the Emax lay in the range of 0 to 100% and the EC (100% of 200 uM G418 response) was above 31.6 µM.

`COc1ccc2c(N)nc(NC3CCN(C)CC3)nc2n1` [Example 17, 7-methoxy-N^2-(1-methylpiperidin-4-yl)pyrido[2,3-d]pyrimidine-2,4-diamine]: the Emax is 100 to 3000% and the EC (100% of 200 uM G418 response) was in the range of 10 to 100 µM.

For `Cc1cc(C)c2c(N)nc(NCC3CCN(C(=O)OC(C)(C)C)CC3)nc2n1` [Example 133], the Emax lay within 0 to 100% and the EC (100% of 200 uM G418 response) is above 100 µM.

As to `Cc1cc(C)c2c(N)nc(NC3CCN(Cc4cc[nH]n4)CC3)nc2n1` [Example 469], the Emax was in the range of 100 to 3000% and the EC (100% of 200 uM G418 response) is 10 to 100 µM.

Consider `CC(=O)Nc1ccccc1-c1ccc2c(N)nc(NC3CCN(C)CC3)nc2n1` [Example 60], for which the Emax lay within 0 to 100% and the EC (100% of 200 uM G418 response) is above 100 µM.

Consider `CNc1cc(N[C@H]2CNC[C@H]2O)nc2nc3c(c(C)c12)CCC3` [Example 618], for which the EC (100% of 200 uM G418 response) is 1 to 10 µM.

Turning to `Cc1cc(C)c2c(N)nc(NC3C[C@H]4CCC[C@@H](C3)N4C)nc2n1` (some centres unmarked) [Example 211], the Emax was 100 to 3000% and the EC (100% of 200 uM G418 response) lay within 1 to 10 µM.

With `CNc1nc(N[C@H]2CN[C@@H](CO)C2)nc2nc(C)cc(C)c12` [Example 411], the EC (100% of 200 uM G418 response) was 1 to 10 µM.

Regarding `CNc1ccnc2nc(NC3CCN(C)CC3)nc(N)c12` [Example 247], the Emax fell in the range of 0 to 100% and the EC (100% of 200 uM G418 response) was above 100 µM.

Regarding `Cc1cc(C)c2c(NCCN)nc(NC3CCN(C)CC3)nc2n1` [Example 315], the Emax was in the range of 0 to 100% and the EC (100% of 200 uM G418 response) is above 31.6 µM.

Take `[2H]C([2H])([2H])Nc1nc(NC2CCN(C([2H])([2H])[2H])CC2)nc2nc(C)cc(C)c12` [Example 512, 5,7-dimethyl-N^4-(methyl-da)-N^2-(1-(methyl-da)piperidin-4-yl)pyrido[2,3-d]pyrimidine-2,4-diamine]: the EC (100% of 200 uM G418 response) lay in the range of 0.1 to 1 µM.

`COCc1cccc(-c2ccc3c(N)nc(NC4CCN(C)CC4)nc3n2)c1` [Example 81]: the EC (100% of 200 uM G418 response) lay in the range of 1 to 10 µM.

For the compound `Cc1cc(C)c2c(N)nc(NCCN3CC4(CCCO4)C3)nc2n1` [Example 167], the Emax fell in the range of 0 to 100% and the EC (100% of 200 uM G418 response) was above 31.6 µM.
